From patent publication US20060117411A1, “Enhancing plant pathogen resistance via increasing BiP levels” (priority 1998, published 2006)

Key:
[1] = tested on: BiP mRNA; test: Treatment of Arabidopsis WT and saiI mutant, Northern blot of BiP; type: in vivo, Arabidopsis thaliana; conditions: Arabidopsis saiI mutant vs wild-type, SA 5 mM
Method: WT and saiI mutants of the same ecotype were treated with cell wall-degrading enzymes and incubated for 6 hours. As a control (con), leaves were mock-infected with H2O. Total RNA was extracted and Northern blot analysis was performed for BiP and a hevein-like protein (Hel) which is known to be induced by CDEs of Erwinia carotovora (Vidal et al, in preparation).
WT and saiI mutants of the same ecotype were sprayed with SA (5 mM) and incubated in the light. Total RNA was extracted and probed with the PR1 and BiP gene from Arabidopsis. The induction of PR1 in WT Arabidopsis was detected 3 hours after SA-treatment and continued to increase until 8 hours (FIG. 10). […] As in tobacco plants, BiP mRNA levels increase prior to PR1 transcripts in SA treated Arabidopsis plants (FIG. 10) and diminish after prolonged incubations (data not shown).
Plants of Nicotiana tabacum cultivar Petit Havana (Maliga et al., 1973) were axenically grown in MS medium (Murashige and Skoog, 1962), 2% Sucrose in a temperature controlled room at 25° C. with a 16 h day/[…] regime and a light irradiance of 200 μE.m^−2.s^−1. Arabidopsis thaliana Nössen WT and saiI plants (Shah et al., 1997) were grown under the same conditions.
Protoplasts RNAs were extracted as described by Jones et al., (1985). […]

[2] = tested on: BiP mRNA; test: SA spraying of tobacco plants, Northern blot of BiP mRNA; type: in vivo, Nicotiana tabacum
Method: It has been shown that SA is involved in the induction of PR genes (reviewed by Malamy and Klessig, 1992) and that this signal molecule also induces the expression of ER chaperones (Denecke et al, 1995). We wanted to investigate whether ER chaperone induction is a consequence of the high synthesis rates of PR genes and used BiP as a model system. Tobacco plants were sprayed with SA (5 mM) and the exact timing of the SA-mediated induction of PR-gene PRI was compared to that of BiP. PR1 was chosen as a representative marker for SA-mediated induction of PR genes as its response to SA is faster and more pronounced than that of acidic chitinase, basic chitinase and basic β-1.3 glucanase (Vidal et al, 1997). […] In contrast SA-induced transcription of PR1 starts only after 6-8 hours and continues to accumulate upto 16 hours after treatment. At this time-point, BiP mRNA levels start to decrease again. We have shown previously that PR1 continuous to accumulate until 48 hours after SA treatment using the same experimental system (Vidal et al, 1997). […] BiP protein levels were also shown to increase (FIG. 7B), with a significant increase noticeable after 4-6 hours of induction.
To investigate further similarities and differences in the SA-mediated induction of BiP and PR genes, we tested if the presence of light is required for the induction. The rationale for this experiment was derived from the observation that SA inhibits catalase, resulting in an increase of active oxygen species in the plant, which would then induce PR genes such as PR1 (Chen et al, 1993). Despite the fact that the inhibition of catalase activity alone is not the key route by which PR1 is induced during SA-treatment (Chamnongpol et al, 1996), a cooperative interaction of SA and H2O2 might lead to the strong induction of PR1 (Leon et al, 1995, Chen et al, 1995). […] Tobacco plants were thus sprayed with SA (5 mM) and incubated in the presence and absence of light for 6 and 16 hours. […] The data also confirm that BiP mRNA levels increase transiently and a significant decrease in mRNA levels is detectable after 16 hours of treatment (see also FIG. 7).
We have shown that the SA-induced expression of PR1 is inhibited in a concentration dependent fashion by the presence of Erwinia carotovora culture filtrate containing cell wall-degrading enzymes (Vidal et al, 1997). […] Total RNA was extracted and the expression of chaperones was determined in relation to PR1.
In example 6 we have shown that the UPR-induced BiP gene expression is additive to the cell wall-degrading enzyme (CDE) response. […] After floating of the leaves for 2.5 h on this medium, RNA was extracted and BiP gene expression was analysed by Northern blotting. […]

Molecule | BiP mRNA levels in saiI mutants during SA-treatment [1] | accumulation of BiP mRNA transcripts during SA-treatment in the absence of light ([2]; SA 5 mM, 6 and 16 hours, dark vs light) | time at which BiP mRNA levels reach a plateau ([2]; sprayed with SA 5 mM) | time of treatment after which BiP mRNA levels are induced ([2]; sprayed with SA 5 mM) | BiP transcription in SA-treated leaves floated on MS medium with tunicamycin ([2]; 5 mM SA 12 h, then tunicamycin 20 μg/mL 2.5 h)
O=C(O)c1ccccc1O [SA, Salicylic Acid] | exactly the same induction pattern as in the wild-type plant | hardly any reduction | 4 h | 2 h | –
tunicamycin | – | – | – | – | further induction
